Regarding `Cc1cc(Nc2ccnc(Nc3ccc(S(=O)(=O)N(C)C4CCN(Cc5cnn(C)c5)CC4)cc3)n2)ccc1F`, the melting point was in the range of 125 to 150 °C.

Take `CCCc1cc(=O)oc2c3c(c4c(c12)OC(C)(C)C=C4)OC(C)C(C)C3O` (single isomer, unassigned; (-)): the melting point was 52 to 54 °C.

In the case of `N=C(NO)c1ccc(-c2ccc(-c3nc4cc(C(=N)NO)ccc4[nH]3)c(F)c2)cc1`, the melting point was in the range of 281 to 283 °C. Consider `CC1=C(c2ccncc2)SC(Nc2ccccc2)C(=O)N1` (centres undefined), for which the melting point lay in the range of 162 to 165 °C. As for `O=C(OCc1cc(OCCCBr)c(OCCCBr)c(OCCCBr)c1)c1ccccc1`, the figure is 53 to 54 °C; as for `c1ccn(Nc2ccc(N3CCOCC3)nn2)c1`, 228 °C.

In turn, `CCCCNN1C2=C(C=C(C)C1C(=O)OCC)CCC(=O)N2` (centres undefined) came in with a melting point of 186 to 188 °C. To `CCOC(=O)c1ncc2ccccc2n1` belongs 71 to 74 °C.

Consider `Cc1noc(NS(=O)(=O)c2ccccc2Br)c1Br`, for which the melting point is 84 to 86 °C. To `O=Cc1cc2c(cc1O)CCCO2` belongs 97 to 100 °C; to `O=C(Nc1ccc2[nH]c(C(F)(F)F)nc2c1)C(=O)N1CCC(Cc2ccccc2)CC1`, 142 °C. Consider `CC1(C)SC2C(NC(=O)CNC(=O)NC(=N)Cc3ccc(Cl)cc3)C(=O)N2C1c1nnn[nH]1` (centres undefined), for which the melting point fell in the range of 150 to 162 °C. Take `CN1CCNCC(NC(=O)c2n[nH]c3ccccc23)C1` (centres undefined): the melting point was 163 to 166 °C. In the case of `O=C1CCCC(c2ccccc2)(c2ccccc2)N1`, the melting point was 193 to 196 °C.

`Cc1c(O)cccc1C(=O)N[C@@H](Cc1ccccc1)[C@H](O)C(=O)N1CSC(C)(C)[C@H]1C(=O)NCc1ccc(N)cc1` had a melting point of 107 to 109 °C.

The molecule `COC1(c2csc(Sc3ccc(/C(C)=N/O)cc3)n2)CCOCC1` showed a melting point of 146 °C. As for `CCCCNC(=O)Oc1ccc(Oc2ccc(C(C)(C)C)cc2)cc1`, the figure is 78 to 80 °C; as for `Brc1ccc(-c2nc(COc3ccc(CCCn4ccnc4)cc3)co2)o1`, 115 to 116 °C; as for `CC(C)c1nnc2ccc(-c3ocnc3-c3c(F)cccc3F)cn12`, 176 °C. As for `Cc1ccc2oc(=O)c(-c3cc(O)c(O)c(C#N)c3)nc2c1`, the figure is 278 to 280 °C; as for `COc1ccc(S(=O)(=O)Nc2ccc([C@@H](C)C(N)=O)cc2)cc1`, 118 to 120 °C; as for `CC(C)(C)c1nnc2ccc(OCCCN3CCC(OC(c4ccccc4)c4ccccc4)CC3)nn12`, 125 to 127 °C.

Molecule `O=C(O)CCCc1cc2cc(Cl)ccc2n1S(=O)(=O)c1ccc2nsnc2c1` had a melting point of 172 to 175 °C. `COC(=O)CN(C)C(=O)c1c(OCc2ccccc2)ccc2c(C(F)(F)F)c(OC)ccc12` had a melting point of 95 to 98 °C. Molecule `COC(=O)COc1c(Br)cc(-c2c3ccccc3c(Br)c3oc4ccccc4c23)cc1Br` returned a melting point of 188 to 189 °C. As for `COC(=O)c1ccc2c(c1)S(=O)(=O)c1ccccc1C2=O`, the figure is 145 to 146 °C; as for `O=C1Nc2ccccc2C1c1ncnc2c1cnn2C1CCCC1` (centres undefined), 228 to 231 °C.

With `NCCCc1cc(Nc2nc(-c3ccccc3)nc3ccccc23)[nH]n1`, the melting point lay in the range of 205 to 207 °C. As to `COc1ccc(CNc2nc(C#N)ncc2C(=O)c2cc(OC)c(OC)c(OC)c2)cc1Cl`, the melting point was in the range of 140 to 143 °C.

Molecule `CC(C)Cc1nc2ccc(Br)cc2c(-c2ccccc2)c1CN1C(=O)c2ccccc2C1=O` showed a melting point of 164 to 165 °C. In turn, `CC(C)(C)OC(=O)NCCN1C(=O)c2ccccc2C1=O` yielded a melting point of 143 to 145 °C. In turn, `CCn1c(C)nc2cc(C#N)ccc21` gave a melting point of 162 °C. In turn, `O=C(Cl)c1ccc(OCc2ccccc2)c(OCc2ccccc2)c1` registered a melting point of 92.5 to 94.5 °C. `C=CCNc1nc(C2C(=O)Nc3ccc(C#N)cc32)c2cn(C3CCCC3)nc2n1` (centres undefined) displayed a melting point greater than 300 °C.

Values taken from a melting point compilation (Tetko et al.; mined from patent text by program, amines drawn as free bases though some values may be those of a salt).
